Measured values taken from patent US8450525B2, “Histone deacetylase inhibitors” (Orchid Chemicals & Pharmaceuticals Limited, priority 2007, dated 2013).

Tests used:
[1] = tested on: T1, HDAC (Mouse Liver Extract); assay: HDAC inhibition assay using Boc-Lys(Ac)-AMC substrate, mouse liver enzyme; type: biochemical
T1 construct: Mouse liver enzyme (10 mg/ml) was diluted 1:6 with HDAC buffer

[2] = tested on: HCT 116 (colon) cells; assay: Anti-cancer screen, growth inhibition (MTT); type: cell-based; conditions: Homo sapiens, HCT-116 cells, 48 hours of incubation
Method in brief: (§1)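 MTT added for 3 h at 37° C, formazan dissolved in DMSO and A570 read. A T0 plate was measured at compound addition.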

[3] = tested on: NCI-H460 (lung) cells; assay: Anti-cancer screen, growth inhibition (MTT); type: cell-based; conditions: Homo sapiens, 48 hours of incubation
Method in brief: as §1

[4] = tested on: U251 (glioma) cells; assay: Anti-cancer screen, growth inhibition (MTT); type: cell-based; conditions: Homo sapiens, U-251 cells, 48 hours of incubation
Method in brief: as §1

Row | HDAC Inhibition % (1 μM) [1] | HDAC Inhibition % (10 μM) [1] | GI50 [2] | GI50 [3] | GI50 [4] | Structure (SMILES)
1 | 39.1% | 61.7% | > 100 µM | 80 µM | 82 µM | COc1cccc(/C(=C\c2ccc(C(=O)Nc3ccccc3N)cc2)C(=O)NC2CC2)c1 [Example 108, N-(2-Aminophenyl)-4-(3-(cyclopropylamino)-2-(3-methoxyphenyl)-3-oxoprop-1-en-1-yl)benzamide]
2 | 34.6% | 51.8% | 11 µM | 25 µM | 20 µM | Nc1ccccc1NC(=O)c1ccc(/C=C(/C(=O)NC2CC2)c2cccs2)cc1 [Example 113, N-(2-Aminophenyl)-4-(3-(cyclopropylamino)-2-(thiophen-2-yl)-3-oxoprop-1-en-1-yl)benzamide]
3 | 36.2% | 66.6% | 68 µM | 10 µM | 3.8 µM | Nc1ccccc1NC(=O)c1ccc(/C=C(/C(=O)NC2CC2)c2ccc(F)cc2Cl)cc1 [Example 117, N-(2-Aminophenyl)-4-(3-(cyclopropylamino)-2-(2-chloro-4-fluorophenyl)-3-oxoprop-1-en-1-yl)benzamide]
4 | 21.0% | 46.0% | 10 µM | 90 µM | 4.2 µM | COc1ccc(/C(=C\c2ccc(C(=O)Nc3ccccc3N)cc2)C(=O)Nc2ccccc2)cc1OC [Example 118, N-(2-Aminophenyl)-4-(3-(phenylamino)-2-(3,4-dimethoxyphenyl)-3-oxoprop-1-en-1-yl)benzamide]
5 | 28.9% | 33.9% | 32 µM | 28 µM | 18 µM | COc1ccc(/C(=C\c2ccc(C(=O)Nc3ccccc3N)cc2)C(=O)NC2CC2)cc1OC [Example 119, N-(2-Aminophenyl)-4-(3-(cyclopropylamino)-2-(3,4-dimethoxyphenyl)-3-oxoprop-1-en-1-yl)benzamide]

Continued, molecule first:

Row | Structure (SMILES) | HDAC Inhibition % (1 μM) [1] | HDAC Inhibition % (10 μM) [1] | GI50 [2] | GI50 [3] | GI50 [4]
6 | O=C(NC1CC1)/C(=C/c1ccc(C(=O)NO)cc1)c1ccccc1 [Example 102, 4-(3-(Cyclopropylamino)-2-phenyl-3-oxoprop-1-en-1-yl)-N-hydroxybenzamide] | 50.1% | 80.4% | 17 µM | 48 µM | 19 µM
7 | Cc1ccc(/C(=C\c2ccc(C(=O)Nc3ccccc3N)cc2)C(=O)NC2CC2)cc1 [Example 104, N-(2-Aminophenyl)-4-(3-(cyclopropylamino)-2-(4-methylphenyl)-3-oxoprop-1-en-1-yl)benzamide] | 44.7% | 58.4% | 6 µM | 5 µM | 7 µM
8 | Nc1ccccc1NC(=O)c1ccc(C=C(C(=O)NC2CC2)c2ccc(C(F)(F)F)cc2)cc1 [Example 106, N-(2-Aminophenyl)-4-(3-(cyclopropylamino)-2-(4-trifluoromethylphenyl)-3-oxoprop-1-en-1-yl)benzamide] | 35.8% | 42.9% | 4 µM | 20 µM | 15 µM
9 | Nc1ccccc1NC(=O)c1ccc(/C=C(/C(=O)NC2CC2)c2ccccc2F)cc1 [Example 109, N-(2-Aminophenyl)-4-(3-(cyclopropylamino)-2-(2-fluorophenyl)-3-oxoprop-1-en-1-yl)benzamide] | 35.8% | 66.8% | 4.1 µM | 6.5 µM | 21 µM
10 | COc1ccc(/C(=C\c2ccc(C(=O)Nc3ccccc3N)cc2)C(=O)NC2CC2)c(OC)c1 [Example 120, N-(2-Aminophenyl)-4-(3-(cyclopropylamino)-2-(2,4-dimethoxyphenyl)-3-oxoprop-1-en-1-yl)benzamide] | 36.9% | 59.3% | 10.5 µM | 21 µM | 10 µM
